Values joined by “and” are separate entries in the source; they are usually repeats but may differ in a detail not shown here. Equal values may be shown once. Read-outs that look alike come from different tables or passages of the source.
What was measured:
[1] = test system: collagen-induced arthritis (CIA) mouse model; assay: Mouse CIA model, repeated for dose exploration (10, 30, 50 mg/kg); conditions: for Significance of clinical score vs. Vehicle group (Two-way ANOVA): Tofacitinib BID; for Changes in body weight, Mean ± SEM / Clinical scores, Mean ± SEM / Clinical scores: significance vs. solvent control group, two-way ANOVA: G2 Tofacitinib 10 mg/kg
From the text: Testing was repeated for dose exploration
The above method was used.

[2] = test system: collagen-induced arthritis (CIA) mouse model; conditions: CIA mice; for clinical score: Tofacitinib 10 mg/kg p.o. BID from day 28; for clinical score / body weight: Mean ± SEM; for body weight: Tofacitinib 10 mg/kg
[3] = test system: adjuvant arthritis (AIA) rat model; assay: Rat AIA (adjuvant arthritis) model; format: in vivo, Lewis rats; conditions: AIA rats, 10 mg/kg daily from day 9, individual animals, 10 mg/kg; for Hind paw volume: in mL (unit assumed)

## C[C@@H]1CCN(C(=O)CC#N)C[C@@H]1N(C)c1ncnc2[nH]ccc12 [Tofacitinib, reference compound]
[1]; CIA mice, Day 35
  Significance of clinical score vs. Vehicle group (Two-way ANOVA): ** (**P < 0.01)
[1]; CIA mice, Day 38
  Significance of clinical score vs. Vehicle group (Two-way ANOVA): *** (***P < 0.001)
[1]; CIA mice, Day 40
  Significance of clinical score vs. Vehicle group (Two-way ANOVA): **** (****P < 0.0001)
[1]; CIA mice, Day 42
  Significance of clinical score vs. Vehicle group (Two-way ANOVA): **** (****P < 0.0001)
[1]; CIA mice, positive control tofacitinib
  Effect on symptoms of arthritis and lesions in tissues: significant improving effect on the symptoms of arthritis and lesions in tissues
[1]; Day 21
  Changes in body weight, Mean ± SEM: 20.41 ± 0.27
  Clinical scores, Mean ± SEM: 0.0 ± 0.00
[1]; Day 24
  Changes in body weight, Mean ± SEM: 19.69 ± 0.37
  Clinical scores, Mean ± SEM: 0.0 ± 0.00
[1]; Day 26
  Changes in body weight, Mean ± SEM: 19.59 ± 0.36
  Clinical scores, Mean ± SEM: 0.3 ± 0.16
[1]; Day 28
  Changes in body weight, Mean ± SEM: 19.25 ± 0.50
  Clinical scores, Mean ± SEM: 0.6 ± 0.18
[1]; Day 31
  Changes in body weight, Mean ± SEM: 18.98 ± 0.53
  Clinical scores, Mean ± SEM: 1.8 ± 0.37
[1]; Day 33
  Changes in body weight, Mean ± SEM: 19.14 ± 0.43
  Clinical scores, Mean ± SEM: 3.1 ± 0.52
[1]; Day 35
  Changes in body weight, Mean ± SEM: 19.03 ± 0.46
  Clinical scores, Mean ± SEM: 3.6 ± 0.56
  Clinical scores: significance vs. solvent control group, two-way ANOVA: ** (** p < 0.01)
[1]; Day 38
  Changes in body weight, Mean ± SEM: 18.98 ± 0.45
  Clinical scores, Mean ± SEM: 4.6 ± 0.75
  Clinical scores: significance vs. solvent control group, two-way ANOVA: *** (*** p < 0.001)
[1]; Day 40
  Changes in body weight, Mean ± SEM: 19.56 ± 0.32
  Clinical scores, Mean ± SEM: 5.1 ± 0.90
  Clinical scores: significance vs. solvent control group, two-way ANOVA: **** (**** p <0.0001)
[1]; Day 42
  Changes in body weight, Mean ± SEM: 19.69 ± 0.40
  Clinical scores, Mean ± SEM: 5.5 ± 0.87
  Clinical scores: significance vs. solvent control group, two-way ANOVA: **** (**** p <0.0001)
[2]; day 21
  clinical score: 0.0 ± 0.00
  body weight: 20.39 ± 0.43
[2]; day 25
  clinical score: 0.3 ± 0.16
  body weight: 20.54 ± 0.45
[2]; day 28
  clinical score: 0.8 ± 0.31
  body weight: 20.63 ± 0.49
[2]; day 29
  clinical score: 1.0 ± 0.42
  body weight: 20.2 ± 0.44
[2]; day 32
  clinical score: 1.8 ± 0.49
  body weight: 19.91 ± 0.50
[2]; day 34
  clinical score: 2.5 ± 0.65
  body weight: 20.39 ± 0.44
[2]; day 36
  clinical score: 2.8 ± 0.75
  body weight: 20.26 ± 0.43
[2]; day 39
  clinical score: 3.4 ± 0.80
  body weight: 20.31 ± 0.34
[2]; day 41
  clinical score: 3.5 ± 0.87
  body weight: 21.04 ± 0.44
[2]; positive control tofacitinib
  Effect on symptoms of arthritis and lesions in tissues: significant improving effect on the symptoms of arthritis and lesions in tissues
[2]; tofacitinib 10 mg/kg
  Joint histopathology (H&E staining): no significant lesions in joint tissues
[2]; tofacitinib 10 mg/kg BID
  Day on which significant inhibition of the score of arthritis began: 34 days
[3]; day 9
  body weight: 167 g (2×) and 156 g and 146 g and 168 g and 151 g and 154 g and 161 g
  clinical scores: 1 and 0 (7×)
  Hind paw volume: 2.1 and 1.42 and 1.4 and 1.35 and 1.24 and 1.1
[3]; day 10
  body weight: 165 g and 153 g and 142 g and 168 g and 150 g and 152 g and 160 g and 166 g
[3]; day 11
  body weight: 162 g and 154 g and 140 g and 166 g and 145 g and 151 g and 158 g and 167 g
  clinical scores: 1.5 and 0.5 (4×) and 0 (2×) and 0.25
  Hind paw volume: 2 and 1.23 and 1.03 and 1.53 and 1.02 and 1.46 and 1.01
[3]; day 12
  body weight: 155 g (2×) and 149 g (2×) and 136 g and 159 g and 145 g and 168 g
[3]; day 13
  body weight: 154 g (2×) and 148 g and 136 g and 157 g and 140 g and 167 g and 150 g
  clinical scores: 3.3 and 1 (3×) and 1.5 and 0.5 and 1.2 and 0.7
  Hind paw volume: 2.59 and 1.92 and 1.72 and 1.16 and 1.39 and 1.11 and 1.83 and 1.47
[3]; day 14
  body weight: 151 g and 144 g and 135 g and 154 g and 140 g and 147 g and 153 g and 164 g
[3]; day 15
  body weight: 150 g and 145 g and 134 g and 152 g and 139 g and 146 g and 151 g and 162 g
  clinical scores: 3.5 and 3 and 2 (2×) and 1.5 and 2.5 and 0.8 and 0.7
  Hind paw volume: 2.54 and 2.22 and 1.31 and 1.33 and 1.65 and 2.45 and 1.18
[3]; day 16
  body weight: 153 g and 142 g and 136 g and 152 g and 141 g and 145 g and 147 g and 160 g
[3]; day 17
  body weight: 156 g and 147 g and 138 g and 151 g and 142 g and 146 g (2×) and 163 g
  clinical scores: 3 and 2 (2×) and 1.8 and 1.5 and 2.3 and 1.3 and 0.3
  Hind paw volume: 2.5 and 2.45 and 2.08 and 1.17 and 2.21 and 1.73 and 2.16 and 0.94
[3]; day 18
  body weight: 155 g and 148 g (3×) and 141 g and 151 g and 143 g and 164 g
[3]; day 19
  body weight: 160 g and 151 g and 144 g and 159 g and 145 g and 153 g and 154 g and 166 g
  clinical scores: 2.8 and 2 and 1.3 (2×) and 0.3 and 1.5 and 1 and 0
  Hind paw volume: 2.81 and 2.85 and 1.96 and 1.46 and 2.31 and 1.83 and 1.42
[3]; day 20
  body weight: 159 g and 150 g and 136 g and 160 g and 145 g and 152 g and 153 g and 165 g
[3]; day 21
  body weight: 161 g and 150 g and 148 g and 162 g
  clinical scores: 2 and 1.5 (2×) and 1.3 (2×) and 0 (2×) and 1
  Hind paw volume: 2.49 and 2.2 and 2.17 and 1.18 and 1.96 and 1.22
[3]; day 23
  clinical scores: 3 and 1 (4×) and 6 and 0.5 and 0
  Hind paw volume: 2.74 and 1.9 and 1.91 and 1.23 and 1.17 and 1.64 and 1.92 and 1.18

— US20240391940A1, “FUSED RING-CONTAINING COMPOUND, APPLICATION THEREOF, AND COMPOSITION CONTAINING SAME” (GenEros Biopharma Ltd., priority 2020, published 2024)
